Assay results as given in patent US4347254A, “Tricyclic cage compounds, their synthesis and use as antiviral agents” (Sumitomo Chemical Company, Limited, priority 1978, dated 1982).
Values joined by “and” are separate entries in the source; they are usually repeats but may differ in a detail not shown here. Equal values may be shown once. Read-outs that look alike come from different tables or passages of the source.

Columns and labels:
[1] = Acute toxicity: mortality after subcutaneous injection; assay type: in vivo, male dd-strain mice; parameters: key to appearance of hyperactivity / clonic convulsion: ±: appearance of hyperactivity; +: appearance of clonic convulsion; conditions: mice
Protocol: Six male dd-strain mice, weighing 25±3 g, were used in each group. Test drugs were injected subcutaneously (0.2 ml/10 g).
Mortality at the 3rd day after subcutaneous injection:-
^(*1) Number of deaths/Number of animals used.

[2] = tested on: catalepsy induced by haloperidol; experiment: Effects on the catalepsy induced by haloperidol (anti-catalepsy activity); assay type: in vivo, male dd-strain mice; conditions: for Number of showing anti-catalepty activity/Number of total animal: 0.5 hour after test drug, haloperidol 7 mg/kg s.c., hydrochloride
Protocol: Pharmcol., 22, 546-547 (1970)" or "J. May et al., Psychopharmcol., 24, 296-307 (1972)".
Effects on the catalepsy induced by haloperidol:
Six male dd-strain mice, weighing 25±3 g, were used in each group. Test drugs were injected intraperitoneally or subcutaneously 3.5 hours after the injection of haloperidol (7 mg/kg, s.c.).
The catalepsy was measured at 0.5 hour after injection of test drugs according to the method of Wirth et al. with slight modification [cf. Wirth, R., Gosswald, R., Horlein, V., Risse, K. H. and Kreiskott, H. Archs int. Pharmacodyn., Ther., 115, 1-31 (1958)].

[3] = tested on: Influenza A/PR/8/34 (HO,Nl) strain; experiment: microbe, parasite or virus in culture; assay type: cell-based, Influenza A virus; conditions: for minimal effective concentration: Influenza A virus, PR/8, 72 h, 34° C., 3 days, read-out: MEC (minimum effective concentration); for Chemotherapeutic index (MCC/MEC): 4320 min
[4] = Cytotoxicity in host cells by microscopic examination and retardation of cell growth rate; assay type: cell-based; conditions: dog; MDCK cells; hydrochloride; read-out: MCC (minimum cytotoxic concentration)
Protocol: Virus (Influenza A/PR/8/34 (HO,Nl) strain) and cell culture (MDCK cells) were used in this study and were grown in Earle-based Eagle-MEM containing 2.5 mg/ml of NaHCO3 and 10% fetal calf serum. Maintenance medium was Eagle's MEM containing 2.5 mg/ml NaHCO3, 0.1% bovine serum albumin and 20 μg/ml Tnypsin.
After washing MDCK Cell monolayers with PBS(-), maintenance medium containing 10^3 TCID50 of virus the drug was added to each culture tube and these tubes were then incubated at 34° C. for 3 days.
Antiviral effects and cytotoxicities of the test compounds were tested against influenza virus by the tube dilution assay.
Cytotoxicity was determined by microscopic examination and retardation of cell growth rate of host cell, and represented by minimum cytotoxicic concentration (MCC, μg/ml).

[5] = tested on: Influenza A/PR/8/34 (HO,Nl) strain; assay type: in vivo, Influenza A virus; ICR male mice; conditions: for LLS (lung lesion score): score 0-5, control 4.7; for efficacy compared with amantadine: as indicated in Table III
[6] = tested on: central nervous system (CNS); conditions: known drug; cited from earlier work
[7] = 1000 mg/kg s.c., hydrochloride (29-1: not hydrochloride)
[8] = hydrochloride (29-1: not hydrochloride)

| Structure (SMILES) | Number of showing anti-catalepty activity/Number of total animal ([2]; 500 mg/kg s.c.) | minimal effective concentration ([3]; MDCK cells, hydrochloride) [µg/mL] | Chemotherapeutic index (MCC/MEC) ([3]; MDCK cells, hydrochloride) | MCC at 72 h [4] [µg/mL] | other results |
| --- | --- | --- | --- | --- | --- |
| N[C@@H]1[C@H]2CC[C@H]3[C@@H]1CO[C@H]3C2 (relative stereo) [Compound No. 12-4, 5-Oxa-endo-2-amino-isotwistane] | 0/6 | 50 | 2 | 100 | Mortality rate at the 3rd day after subcutaneous injection (Number of deaths/Number of animals used) ([1]; 2000 mg/kg s.c., hydrochloride): 0/6; appearance of hyperactivity / clonic convulsion ([1]; 2000 mg/kg s.c., hydrochloride): ± |
| N[C@H]1[C@H]2CC[C@H]3[C@@H]1CO[C@H]3C2 (relative stereo) [Compound No. 12-9, 5-Oxa-exo-2-amino-isotwistane] | – | 50 | 2 | 100 | – |
| CN[C@@H]1[C@H]2CC[C@H]3[C@@H]1CO[C@H]3C2 (relative stereo) [Compound No. 18-3, 5-Oxa-endo-2-N-methylamino-isotwistane] | 1/6 | 50 | > 4 | > 200 | appearance of hyperactivity / clonic convulsion ([1]; 1000 mg/kg s.c., hydrochloride): ±; Mortality rate at the 3rd day after subcutaneous injection (Number of deaths/Number of animals used) [1, 7]: 0/6 |
| NC[C@@H]1[C@H]2CC[C@H]3[C@@H]1CO[C@H]3C2 (relative stereo) [Compound No. 25-3, 5-Oxa-endo-2-aminomethyl-isotwistane] | 0/6 | 25 | 4 | 100 | Mortality rate at the 3rd day after subcutaneous injection (Number of deaths/Number of animals used) [1, 7]: 0/6 |
| NC[C@H]1[C@H]2CC[C@H]3[C@@H]1CO[C@H]3C2 (relative stereo) [Compound No. 67-1, exo-2-aminomethyl-5-oxa-isotwistane] | – | 25 | 4 | 100 | – |
| NC12CC3CC(CC(C3)C1)C2 [Amantadine, reference compound] | – | 12.5 | – | 12.5 | Mortality rate at the 3rd day after subcutaneous injection (Number of deaths/Number of animals used) ([1]; 300 mg/kg s.c., hydrochloride): 6/6; Number of showing anti-catalepty activity/Number of total animal ([2]; 50 mg/kg s.c.): 3/6 and 2/6; antagonism of the catalepsy (in words), amantadine ([2]; at 50 mg/kg): antagonizes the catalepsy at 50 mg/kg; LLS (lung lesion score) ([5]; hydrochloride): 4.3; Chemotherapeutic index (MCC/MEC) ([3]; mdck): 1; CNS-effects (in words), amantadine [6]: strong effects on a central nervous system (CNS) |
| NC12COC3CC(CCC31)C2 (stereo not drawn) [Compound No. 12-3, 5-Oxa-3-amino-isotwistane] | 2/6 | 50 | 2 | 100 | Mortality rate at the 3rd day after subcutaneous injection (Number of deaths/Number of animals used) ([1]; 705 mg/kg s.c., hydrochloride): 0/6; appearance of hyperactivity / clonic convulsion ([1]; 705 mg/kg s.c., hydrochloride): ±; LLS (lung lesion score) [5, 8]: 3.6; efficacy compared with amantadine [5]: comparable to that of amantadine |
| NCC1C2CCC3C(COC13)C2 (stereo not drawn) [Compound No. 12-10] | – | 25 | 4 | 100 | – |
| CNC12COC3CC(CCC31)C2 (stereo not drawn) [Compound No. 18-2, 5-Oxa-3-N-methylamino-isotwistane] | – | 50 | > 4 | > 200 | Mortality rate at the 3rd day after subcutaneous injection (Number of deaths/Number of animals used) ([1]; 500 mg/kg s.c., hydrochloride): 0/6; appearance of hyperactivity / clonic convulsion ([1]; 500 mg/kg s.c., hydrochloride): ±; Number of showing anti-catalepty activity/Number of total animal ([2]; 250 mg/kg s.c.): 3/6 |
| NCC12COC3CC(CCC31)C2 (stereo not drawn) [Compound No. 27-2, 5-Oxa-3-aminomethyl-isotwistane] | 1/6 | 25 | 8 | 200 | Mortality rate at the 3rd day after subcutaneous injection (Number of deaths/Number of animals used) ([1]; 1190 mg/kg s.c., hydrochloride): 0/6; appearance of hyperactivity / clonic convulsion ([1]; 1190 mg/kg s.c., hydrochloride): ±; times as safe as amantadine (by chemotherapeutic index) ([3]; compared with amantadine): 8 times |
| NCCCC12COC3CC(CCC31)C2 (stereo not drawn) [Compound No. 27-4, 5-Oxa-3-(ω-amino-n-propyl)-isotwistane] | – | 25 | 4 | 100 | Mortality rate at the 3rd day after subcutaneous injection (Number of deaths/Number of animals used) ([1]; 250 mg/kg s.c., hydrochloride): 1/6; Mortality rate at the 3rd day after subcutaneous injection (Number of deaths/Number of animals used) ([1]; 500 mg/kg s.c., hydrochloride): 6/6 |
| COC(=O)C12COC3CC(CC31)C2 (stereo not drawn) [Compound No. 29-1, 5-oxa-3-methoxycarbonyl-brendane] | – | – | – | – | Mortality rate at the 3rd day after subcutaneous injection (Number of deaths/Number of animals used) [1, 7]: 0/6; LLS (lung lesion score) [5, 8]: 4.3; efficacy compared with amantadine [5]: comparable to that of amantadine |
| CN(C)CC12COC3CC(CCC31)C2 (stereo not drawn) [Compound No. 41-5, 5-Oxa-3-N,N-dimethylaminomethyl-isotwistane] | – | 50 | 2 | 100 | – |
| CC(N)C12COC3CC(CCC31)C2 (stereo not drawn) [Compound No. 44-1, 5-oxa-3-(α-aminoethyl)-isotwistane] | – | 25 | 2 | 50 | appearance of hyperactivity / clonic convulsion ([1]; 1000 mg/kg s.c., hydrochloride): ±; Mortality rate at the 3rd day after subcutaneous injection (Number of deaths/Number of animals used) [1, 7]: 0/6; Number of showing anti-catalepty activity/Number of total animal ([2]; 250 mg/kg s.c.): 1/6 |
| NC1C2CC3COC1C3C2 (stereo not drawn) [Compound No. 44-3, 2-Amino-4-oxa-brendane] | – | 50 | 2 | 100 | – |
| NC1C2CCC3C(COC13)C2 (stereo not drawn) [Compound No. 44-4, 2-Amino-4-oxa-isotwistane] | 0/6 | 100 | 1 | 100 | Mortality rate at the 3rd day after subcutaneous injection (Number of deaths/Number of animals used) [1, 7]: 0/6 |
| NCC12CSC3CC(CC31)C2 (stereo not drawn) [Compound No. 49-1, 5-thia-3-aminomethyl-brendane] | – | 25 | 2 | 50 | Mortality rate at the 3rd day after subcutaneous injection (Number of deaths/Number of animals used) ([1]; 250 mg/kg s.c., hydrochloride): 0/6; appearance of hyperactivity / clonic convulsion ([1]; 250 mg/kg s.c., hydrochloride): +; Number of showing anti-catalepty activity/Number of total animal ([2]; 125 mg/kg s.c.): 1/6 |
| NCC12CSC3CC(CCC31)C2 (stereo not drawn) [Compound No. 53-1] | – | 12.5 | 2 | 25 | Mortality rate at the 3rd day after subcutaneous injection (Number of deaths/Number of animals used) ([1]; 500 mg/kg s.c., hydrochloride): 3/6 |
